Six compounds from patent US10519134B2, “Pyrazole compounds and methods of making and using same” (Lundbeck La Jolla Research Center, Inc., priority 2015, dated 2019) can be followed below.

Assay [1] concerns the target T1, MAGL (Homo sapiens, UniProt Q99685).
T1 construct: Proteomes (human prefrontal cortex or cell membrane fractions); from tissue; host or cells: human prefrontal cortex (or cell membrane fractions)
T1 sequence (Q99685 1-303): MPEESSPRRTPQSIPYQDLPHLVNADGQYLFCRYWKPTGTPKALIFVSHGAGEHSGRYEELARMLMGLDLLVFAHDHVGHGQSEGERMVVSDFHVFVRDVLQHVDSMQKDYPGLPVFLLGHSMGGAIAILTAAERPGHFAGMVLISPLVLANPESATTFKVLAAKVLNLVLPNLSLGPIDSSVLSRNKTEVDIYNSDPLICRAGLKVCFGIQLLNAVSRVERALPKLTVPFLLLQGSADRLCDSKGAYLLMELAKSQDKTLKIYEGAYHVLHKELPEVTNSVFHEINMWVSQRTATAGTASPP
Put plainly: In vitro competitive activity-based protein profiling (human), MAGL gel band. It counts as biochemical. In short, it runs like this: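 Human prefrontal cortex or cell membrane proteomes (1.0-2.0 mg/mL protein) preincubated with inhibitors 30 min at 37° C, then labelled with FP-Rh or JW912 probe 30 min at room temperature. Residual MAGL activity read as fluorescent gel-band intensity after SDS-PAGE.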

The target in assay [2] is T2, MAGL (Mus musculus, UniProt O35678).
T2 construct: Proteomes (mouse brain membrane fraction or cell lysates); from tissue; host or cells: mouse brain membrane fraction (or cell lysates)
T2 sequence (O35678 1-303): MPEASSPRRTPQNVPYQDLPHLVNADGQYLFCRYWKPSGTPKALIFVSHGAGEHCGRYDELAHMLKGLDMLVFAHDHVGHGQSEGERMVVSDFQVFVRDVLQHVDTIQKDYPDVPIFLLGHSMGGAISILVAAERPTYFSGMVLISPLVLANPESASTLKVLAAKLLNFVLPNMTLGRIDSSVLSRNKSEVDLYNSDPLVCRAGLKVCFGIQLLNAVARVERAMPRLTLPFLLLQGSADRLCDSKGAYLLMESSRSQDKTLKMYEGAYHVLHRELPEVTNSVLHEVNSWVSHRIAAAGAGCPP
Put plainly: In vitro competitive activity-based protein profiling (mouse), MAGL gel band. It is filed as biochemical. Conditions: for inhibition at 1 µM: read-out: MAGL % inh. 1 μM. A digest of the protocol: (§1)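 Gel-based competitive ABPP: proteome 1.0 mg/mL, inhibitor 30 min 37 °C, then FP-Rh or HT-01 probe (stock 50 μM) 30 min 37 °C; SDS quench, SDS-PAGE, in-gel fluorescence of the enzyme band quantified.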

In assay [3] the target is T2, MAGL. Put plainly: Mouse brain proteomes from inhibitor treated mice (oral gavage, sacrificed 4 h after administration). Particulars: read-out: MAGL % inh. 5 mg/kg. It is filed as in vivo. In short, it runs like this:
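Wild-type C57Bl/6J mice got compound by oral gavage in polyethylene glycol vehicle. Brain proteomes were prepared 4 h after dosing and analyzed for serine hydrolase activity.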

For assay [4], the target named is T3, FAAH (Mus musculus, UniProt O08914).
T3 construct: Proteomes (mouse brain membrane fraction or cell lysates); from tissue; host or cells: mouse brain membrane fraction (or cell lysates)
T3 sequence (O08914 1-579): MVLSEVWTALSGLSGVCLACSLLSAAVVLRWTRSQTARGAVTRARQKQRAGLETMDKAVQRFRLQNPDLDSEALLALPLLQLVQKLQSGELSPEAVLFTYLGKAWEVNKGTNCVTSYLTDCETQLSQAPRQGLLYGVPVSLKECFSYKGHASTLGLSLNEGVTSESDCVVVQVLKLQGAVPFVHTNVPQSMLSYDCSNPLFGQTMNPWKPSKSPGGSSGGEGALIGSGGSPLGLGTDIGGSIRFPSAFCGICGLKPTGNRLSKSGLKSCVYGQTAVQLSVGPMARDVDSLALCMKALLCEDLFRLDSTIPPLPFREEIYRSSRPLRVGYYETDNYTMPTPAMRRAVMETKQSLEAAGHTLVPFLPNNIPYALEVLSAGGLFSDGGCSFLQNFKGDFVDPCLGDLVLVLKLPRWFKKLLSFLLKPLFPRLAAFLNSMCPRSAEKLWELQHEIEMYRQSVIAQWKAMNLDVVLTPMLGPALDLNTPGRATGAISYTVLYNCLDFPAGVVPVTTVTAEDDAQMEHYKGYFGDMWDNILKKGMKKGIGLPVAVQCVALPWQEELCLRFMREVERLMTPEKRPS
Put plainly: In vitro competitive activity-based protein profiling (mouse), FAAH gel band. It is filed as biochemical. Particulars: for inhibition at 1 µM: read-out: FAAH % inh. 1 μM. A digest of the protocol: as §1

Some results are limits rather than exact numbers.

In assay [1], `CS(=O)(=O)Nc1ccn(C(=O)N2CCN(Cc3ccc(Cl)c(-c4nccs4)c3)CC2)n1` [Example 221, N-(1-(4-(4-chloro-3-(thiazol-2-yl)benzyl)piperazine-1-carbonyl)-1H-pyrazol-3-yl) methanesulfonamide] returned an IC50 not above 100 nM. Further, the inhibition at 1 µM in assay [2] is not below 75%; in assay [4], 0 to 25%. For the same compound, in assay [3], the inhibition at 5 mg/kg was 0 to 25%.

On to `CC(=O)N1CCC2(CC1)CN(c1cc(C(F)(F)F)ccc1CN1CCN(C(=O)n3ccc(NS(C)(=O)=O)n3)CC1)C2` [Example 229, N-(1-(4-(2-(7-acetyl-2,7-diazaspiro[3.5]nonan-2-yl)-4-(trifluoromethyl)benzyl)piperazine-1-carbonyl)-1H-pyrazol-3-yl) methanesulfonamide], for which, in assay [1], the IC50 was not above 100 nM. Also, the inhibition at 1 µM in assay [2] was not below 75%; in assay [4], 0 to 25%. In assay [3], the inhibition at 5 mg/kg was 0 to 25%.

With `CC(=O)N1CCC2(CC1)CCN(c1cc(C(F)(F)F)ccc1CN1CCN(C(=O)n3ccc(NS(C)(=O)=O)n3)CC1)C2` [Example 232, N-(1-(4-(2-(8-acetyl-2,8-diazaspiro[4.5]decan-2-yl)-4-(trifluoromethyl)benzyl)piperazine-1-carbonyl)-1H-pyrazol-3-yl) methanesulfonamide], the IC50 in assay [1] is not above 100 nM. The inhibition at 1 µM in assay [2] is not below 75%; in assay [4], 0 to 25%. For the same compound, in assay [3], the inhibition at 5 mg/kg fell in the range of 0 to 25%.

For the compound `CS(=O)(=O)Nc1ccn(C(=O)N2CCN(Cc3ccc(Cl)c(-c4ccc(C(F)(F)F)nc4)c3)CC2)n1` [Example 233, N-(1-(4-(4-chloro-3-(6-(trifluoromethyl)pyridin-3-yl)benzyl)piperazine-1-carbonyl)-1H-pyrazol-3-yl) methanesulfonamide], the IC50 in assay [1] was not above 100 nM. In addition, the inhibition at 1 µM in assay [2] was not below 75%; in assay [4], 0 to 25%. For the same compound, in assay [3], the inhibition at 5 mg/kg was in the range of 25 to 50%.

On to `CS(=O)(=O)Nc1ccn(C(=O)N2CCN(Cc3cccc(Cl)c3N3CC4CCC(C3)O4)CC2)n1` [Example 288, N-(1-(4-(2-(8-oxa-3-azabicyclo[3.2.1]octan-3-yl)-3-chlorobenzyl)piperazine-1-carbonyl)-1H-pyrazol-3-yl) methanesulfonamide], for which the IC50 in assay [1] is not above 100 nM; in assay [2] (mouse), not above 100 nM; in assay [4] (mouse), 1000 to 10000 nM. Further, the inhibition at 1 µM in assay [2] was not below 75%; in assay [4] it was 0 to 25%. The inhibition at 5 mg/kg in assay [3] lay in the range of 0 to 25%.

Compound `[2H]C([2H])([2H])c1cc(CN2CCCC23CCN(C(=O)n2ccc(NC(C)=O)n2)CC3)ccc1Cl` [Example 294, N-(1-(1-(4-chloro-3-(methyl-d3)benzyl)-1,8-diazaspiro[4.5]decane-8-carbonyl)-1H-pyrazol-3-yl)acetamide] registered an IC50 in assay [1] not above 100 nM. Also, the inhibition at 1 µM in assay [2] was not below 75%; in assay [4], 0 to 25%. Besides, the inhibition at 5 mg/kg in assay [3] is not below 75%.

As usually defined, the IC50 is the concentration that inhibits the measured activity by half. Read a low IC50 as higher potency.
